Series [1] in a line: Kinetic solubility assay (μSOL). In kind it is physicochemical. As to conditions: pH 7.4. As to the method:
The μSOL assay was used for kinetic solubility determination, as described in Avdeef, et al., “Drug absorption in vitro model: filter-immobilized artificial membranes. 2. Studies of the permeability properties of lactones in Piper methysticum Forst,” Eur J Pharm Sci 14, 271-280 (2001), which is incorporated by reference herein. In this assay, the classical saturation shake-flask solubility method was adapted as described. Test compounds were prepared as 10 mM DMSO stock solutions and diluted to a final compound concentration of 150 μM in aqueous solution (pH 7.4, 100 mM phosphate buffer). Samples were incubated at room temperature for 6 hours and vacuum-filtered using Te-Vac (Tecan, Morrisville, N.C.) to remove any precipitates. The concentration of the compound in the filtrate was measured via UV absorbance (k 250-498 nm). The unknown compound concentration was determined by comparing the fully solubilized reference plate which contained 17 μM of compound dissolved in spectroscopically pure n-propanol. All compounds were tested in duplicates. The kinetic solubility (μg/mL) of compounds was calculated using the pSOL Evolution software (Pion Inc., Billerica, Mass.). The three controls used were albendazole (low solubility), phenazolpyridine (moderate solubility) and furosemide (high solubility).

A short description of series [2]: Parallel artificial membrane permeability assay (PAMPA). The format is in vitro ADME. As to conditions: pH 7.4. From the text: Stirring double-sink PAMPA method was employed to determine the permeability of compounds via PAMPA. The PAMPA lipid membrane consisted of an artificial membrane of a proprietary lipid mixture and dodecane (Pion Inc., Billerica, Mass.), optimized to predict gastrointestinal tract passive permeability. The lipid was immobilized on a plastic matrix of a 96-well “donor” filter plate placed above a 96-well “acceptor” plate. pH 7.4 solution was used in both donor and acceptor wells. The test articles, stocked in 10 mM DMSO solutions, were diluted to 0.05 mM in aqueous buffer (pH 7.4), and the concentration of DMSO was 0.5% in the final solution. During the 30-minute permeation period at room temperature, the test samples in the donor compartment were stirred using the Gutbox technology (Pion Inc.) to reduce the aqueous boundary layer. The test article concentrations in the donor and acceptor compartments were measured using a UV plate reader (Nano Quant, Infinite® 200 PRO, Tecan). Permeability calculations were performed using Pion Inc. software and were expressed in units of 10-6 cm/s. Compounds with low or weak UV signal were analyzed using high resolution LC/MS (Thermo QExactive, Thermo Fisher).

Series [3] concerns C57BL/6N mice. Description: Acute scratching behavior, histamine-induced. The format is in vivo, mouse. As to conditions: 163 μg i.p., 10 minutes before 100 μg histamine into nape of neck; bouts per 30 minutes. The protocol:
(§1) All experiments using mice followed NIH guidelines and were approved by the National Institute of Dental and Craniofacial Research ACUC. Behavioral assessment of scratching behavior was conducted as follows: 6-8-week old female C57BL/6N mice (Envigo) were injected intraperitoneally with JS-11 (163 μg) or DMSO (20%) as a vehicle control. Ten minutes later, 100 μg histamine diluted in 10 μl PBS or 8.9 μg CYM5442 diluted in 10 μl ddH2O was injected subcutaneously into the nape of the neck. Scratching behavior was recorded for 30 minutes and is presented in bouts per 30 minutes. One bout was defined as scratching behavior towards the injection site between lifting the hind leg from the ground and either putting it back on the ground or guarding the paw with the mouth. To control for motor impairment by JS-11, rota-rod performance was also assessed 10 minutes after intraperitoneal injection.

Series [4] has as its system C57BL/6N mice. Description: Acute scratching behavior, CYM5442-induced. The format is in vivo, mouse. As to conditions: 163 μg i.p., 10 minutes before 8.9 μg CYM5442 into nape of neck; bouts per 30 minutes. As to the method: as §1
Series [5] deals with C57BL/6N mice. Description: Rotarod performance and gross behavior after JS-11. The format is in vivo, mouse. The protocol: as §1
Series [6] concerns C57BL/6N mice. Description: Contact hypersensitivity (DNFB) model of chronic scratching. In kind it is in vivo, mouse. As to conditions: 163 μg i.p. As to the method:
The contact hypersensitivity model was performed as follows: the back of 6-8-week old female C57BL/6N mice (Envigo) was shaved with electric clippers. After 2 days, 25 μl of 0.5% (v/v) dinitro-fluoro-benzene (DNFB) diluted in a 4:1 mixture of acetone and olive oil was applied to the shaved back skin. Hapten challenge was performed 5 days after sensitization by applying 40 μl of 0.2% (v/v) DNFB in the same vehicle on the left ear and 40 μl of vehicle alone on the right ear. […] Mice were then injected intraperitoneally with JS-11 (163 μg) or DMSO (20%) as a vehicle control. After 10 minutes, scratching was again observed for 30 minutes. To assess skin inflammation, ear thickness was measured with a thickness gauge (Mitutoyo, Aurora, Ill.) before and 30 minutes after JS-11/DMSO injections and normalized to ear thickness before hapten challenge.

One may read the Papp as the rate of passage across a membrane or cell layer, normalised by area and donor concentration.

“Also recorded” adds a separate entry of the source.

On to `Cc1cc(CNC(=O)c2ccc3c(c2)n(CC2CC2)c(=O)n3C2CCCCC2)on1` [JS-11, 1-cyclohexyl-3-(cyclopropylmethyl)-N-((3-methylisoxazol-5-yl)methyl)-2-oxo-2,3-dihydro-1H-benzo[d]imidazole-5-carboxamide], for which, in series [1], the water solubility entry is “relatively high-water solubility”. This compound also displayed a Papp at 30 min, 0.05 mM in series [2] of 7.4 ×10⁻⁶ cm/s. The “Scratching responses to histamine” value in series [3] is listed as “reduced scratching responses to histamine by more than half; also recorded: significantly attenuated”. For the same compound, the “Scratching responses to CYM5442” value in series [4] is reported as “strongly attenuated itch response; also recorded: significantly attenuated”. The Overall mouse behavior result in series [5] (163 μg intraperitoneally) is “no gross change in overall mouse behavior”. Also, the “Motor coordination (rotarod performance)” value in series [5] (10 minutes after 163 μg JS-11 intraperitoneally) is given as “no impairment of motor coordination; also recorded: not significantly altered”. In addition, in series [6] (measured before and 30 minutes after injection), the “Skin inflammation (% ear thickness) after hapten challenge” value is on record as “had no effect on skin inflammation; also recorded: no differences in % ear thickness were detectable”. Moreover, the Hapten-induced scratching responses result in series [6] (scratching observed 30 minutes, from 10 minutes after injection) is reported as “attenuated hapten-induced scratching responses by about a half; also recorded: significantly reduced”.
